Where two headings read alike, the source gives them in different places.
Legend:
5‐HT2C receptor = target: T1, 5‐HT2C receptor (Rattus norvegicus, UniProt P08909); assay: 5‐HT2C competition binding assay ([3H]mesulergine, frontal cortex membranes); conditions: 5 nM [3H]mesulergine
T1 construct: 10 μM pargyline and 160μg of the frontal cortex membrane suspension; from tissue; host or cells: rat (Sprague-Dawley) frontal cortex membranes
T1 sequence (P08909 33-460): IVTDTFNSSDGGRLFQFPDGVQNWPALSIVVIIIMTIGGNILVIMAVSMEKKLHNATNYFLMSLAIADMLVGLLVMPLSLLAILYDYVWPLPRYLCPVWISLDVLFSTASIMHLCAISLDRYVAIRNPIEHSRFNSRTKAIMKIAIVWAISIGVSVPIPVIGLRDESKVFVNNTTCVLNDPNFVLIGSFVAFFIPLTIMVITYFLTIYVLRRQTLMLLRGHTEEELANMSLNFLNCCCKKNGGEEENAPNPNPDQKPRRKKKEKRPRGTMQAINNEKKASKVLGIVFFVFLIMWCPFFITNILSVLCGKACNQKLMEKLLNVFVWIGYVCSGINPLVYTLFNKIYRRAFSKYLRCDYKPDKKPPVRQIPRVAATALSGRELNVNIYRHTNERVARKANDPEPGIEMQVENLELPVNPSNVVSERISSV
Procedure: Sprague‐Dawley rats were sacrificed by isoflurane overdose. Brains were rapidly removed and placed on ice. Hippocampi (for the 5‐HT1A assay) and frontal cortices (for the 5‐HT2A and 5‐HT2C assays) were dissected on a Petri dish. The tissue from 10 rats was homogenized in 30 vol. homogenization buffer (50 mM Tris–HCl, […], 1 mM EDTA, 1 mM dithiothreitol) with a handheld Teflon‐glass homogenizer. The homogenate was centrifuged at 48,000 × g at 4 °C for 15 min. The pellet was suspended and homogenized in the homogenization buffer and incubated for 10 min. at 36 °C. The centrifugation and suspension steps were repeated twice. The final pellet was homogenized in 5 vol. 50 mM Tris–HCl, pH = 7.4 buffer and stored at −80 °C for no longer than 6 months. […] For the 5‐HT2C assay, compounds were incubated in duplicate with 5 nM [^3H]mesulergine (specific activity: 80.2 Ci mmol^−1, Revvity, MA, USA) for 60 min. at 36 °C in a 50 mM Tris‐HCl (pH 7.4) buffer, supplemented with 5 mM MgCl2, 140 mM NaCl, 1 mM DTT, 1 mM CaCl2, 10 μM pargyline and 160μg of the frontal cortex membrane suspension. Non‐specific binding was determined with 10μM serotonin. The final DMSO concentration in the assay was 5%. After incubation, the reaction mixture was deposited onto Unifilter GF/C plates (Revvity, MA, USA) presoaked in 0.4% PEI (or 0.4% PEI and 0.5% Triton X‐100 for the 5‐HT2C assay) for 1 h with the FilterMate‐96 Harvester (Revvity, MA, USA). Then, each well was washed with 2 mL of 50 mM Tris–HCl (pH 7.4) buffer to separate bound ligands from free and the plates were left to dry overnight. Then, 35μl of Microscint‐20 scintillation fluid (Revvity, MA, USA) was added to each filter well and left to equilibrate for 2h. Filter‐bound radioactivity was counted in a MicroBeta2 LumiJet scintillation counter (Revvity, MA, USA). Binding curves were fitted with one site non‐linear regression. Binding affinity (pKi and Ki) for each compound was calculated from the […] values with the Cheng‐Prusoff equation from two separate experiments.

larval zebrafish = assay: Basic locomotor activity of larval zebrafish; type: in vivo, zebrafish (Danio rerio); conditions: 5 dpf larvae, 20 h incubation at maximum‐tolerated concentration (Figure 12), 30 min tracking
Procedure: All experiments were conducted on zebrafish (Danio rerio) larvae up to 5 days post fertilization (dpf), therefore, in accordance with current European legislation, ethical permission to conduct assays was not required. However, housing and experimental procedures were performed in compliance with the National Institute of Health Guidelines for the Care and Use of Laboratory Animals and the European Union Directive of 22 September 2010 (2010/63/EU) on protecting animals used for scientific purposes. All efforts were taken to minimize larvae stress and suffering. Larvae were euthanized with an overdose of tricaine ([…]). The zebrafish facility of Experimental Medicine Centre (Medical University of Lublin, Poland) provided wild‐type zebrafish embryos of the AB strain. Embryos as well as larvae were maintained in Petri dishes filled with E3 embryo medium, i.e., fish water (1.5 mM HEPES, pH 7.6; 17.4 mM NaCl; 0.21 mM KCl; 0.12 mM MgSO4; and 0.18 mM Ca (NO3)2). These were maintained under standard, generally accepted housing conditions (temperature 28.5 ± 1 °C, light to dark cycle 14 h to 10 h). Plastic transfer Pasteur pipettes were used to replace medium each day. Before the respective behavioral tests were conducted, larvae at 4 dpf were incubated for 20 h in different arylpiperazine derivatives solutions of maximum‐tolerated concentrations (MCTs), determined during toxicological screening.^[ [30], [32] ^] The control group was exposed to equivalent concentration of DMSO solvent. All locomotor tracking tests were performed at the same period of the day. Basic locomotor activity was measured using an automated tracking device, Daniovision by Noldus, and the total distance traveled was quantified using EthoVision XT software of the same company (Wageningen, the Netherlands) over a 30 min long observation period. Larvae were placed in 48‐well plates, individually (single larva per well), using a plastic transfer pipette. The PTZ‐induced hyperlocomotion (acute seizure assay) was assessed in 5 dpf larval zebrafish (after 20 h incubation with tested derivatives at MCTs). After the incubation, larvae were exposed to an acute dose of PTZ (20 mM). Larval locomotor activity after exposure to PTZ was tracked (Daniovision by Noldus) over 30 mins, after 5‐mins of habituation. Additionally, larval locomotor activity was assessed in response to alternate lighting conditions (lights ON vs. lights OFF). Light intensity under illumination was 100%. Challenge to light/dark conditions lasted 10 min each, twice repeated.^[ [52] ^] Similarly, the data were recorded as the distance traveled (mm) by larvae when exposed to alternating lightning. All experiments were repeated three times, and data pooled. For statistical analysis and figure generation, GraphPad Prism 9.3.1 version (San Diego, CA, USA) was employed, and Grubbs test was applied to identify outliers. Shapiro‐Wilk test was then employed to assess whether data are normally distributed. Moreover, nonparametric ANOVA, Kruskal–Wallis, or Friedman (for repeated measures) test was used to analyze data, with statistical significance level set at p < 0.05. Data are presented as median or median + individual values.

[1] = 95% CI in brackets, read-out: 5‐HT2C Ki (95% CI)
[2] = read-out: 5‐HT2C pKi (converted)

SMILES	Ki (5‐HT2C receptor; [1]) [µM]	Ki (5‐HT2C receptor; [2]) [µM]	basic locomotor activity (total distance traveled) (larval zebrafish)
O=C(NCCCN1CCN(c2ccc(C3=NCCS3)cc2)CC1)c1ccncc1 [FG‐6, N‐(3‐(4‐(4‐(4,5‐dihydrothiazol‐2‐yl) phenyl) piperazin‐1‐yl) propyl) isonicotinamide]	2.21	2.24	slightly decreased larval activity
O=C(NCCCN1CCN(c2ccc(C3=NCCS3)cc2)CC1)C1CC2C=CC1C2 (stereo not drawn) [FG‐18, Endo‐ N‐(3‐(4‐(4‐(4,5‐dihydrothiazol‐2‐yl)phenyl)piperazin‐1‐yl)propyl) bicyclo[2.2.1]hept‐5‐ene‐2‐carboxamide]	0.017	–	decreased
O=C(NCCCN1CCN(c2ccccc2C2=NCCS2)CC1)c1ccncc1 [FG‐4, N‐(3‐(4‐(2‐(4,5‐dihydrothiazol‐2‐yl) phenyl) piperazin‐1‐yl) propyl) isonicotinamide]	7.28	–	slightly decreased larval activity
O=C(NCCCN1CCN(c2cccc(C3=NCCS3)c2)CC1)c1ccncc1 [FG‐5, N‐(3‐(4‐(3‐(4,5‐dihydrothiazol‐2‐yl) phenyl) piperazin‐1‐yl) propyl) isonicotinamide]	12.5	–	–
O=C(NCCCN1CCN(c2ccccc2C2=NCCS2)CC1)c1ccccn1 [FG‐1, N‐(3‐(4‐(2‐(4,5‐dihydrothiazol‐2‐yl) phenyl) piperazin‐1‐yl) propyl) picolinamide]	6.86	–	decreased
O=C(NCCCN1CCN(c2cccc(C3=NCCS3)c2)CC1)c1ccccn1 [FG‐2, N‐(3‐(4‐(3‐(4,5‐dihydrothiazol‐2‐yl) phenyl) piperazin‐1‐yl) propyl) picolinamide]	0.816	0.832	–
O=C1C2C3C=CC(C3)C2C(=O)N1OCCCN1CCN(c2cccc(C3=NCCS3)c2)CC1 (centres unmarked) [FG‐8, 2‐(3‐(4‐(3‐(4,5‐dihydrothiazol‐2‐yl) phenyl) piperazin‐1‐yl) propoxy)‐3a,4,7,7a‐tetrahydro‐1H‐4,7‐methanoisoindole‐1,3(2H)‐dione]	0.046	0.0468	slightly decreased larval activity
O=C1C2C3C=CC(C3)C2C(=O)N1OCCCN1CCN(c2ccccc2C2=NCCS2)CC1 (centres unmarked) [FG‐7, 2‐(3‐(4‐(2‐(4,5‐dihydrothiazol‐2‐yl) phenyl) piperazin‐1‐yl) propoxy)‐3a,4,7,7a‐tetrahydro‐1 H‐4,7‐methanoisoindole‐1,3(2 H)‐dione]	80.8	–	slightly decreased larval activity

From article PMC12321279, “Novel 4,5‐Dihydrothiazole‐Phenylpiperazine Derivatives: Synthesis, Docking Studies and Pharmacological Evaluation as Serotonergic Agents” (Chemmedchem, 2025)
